From ChEMBL document CHEMBL3259595, “Nitric oxide synthase inhibitors that interact with both heme propionate and tetrahydrobiopterin show high isoform selectivity” (J Med Chem, 2014)

What was measured:
Nitric oxide synthase 1 = Nitric oxide synthase 1 (Rattus norvegicus, UniProt P29476); experiment: Inhibition of purified rat nNOS assessed as inhibition of nitric oxide-mediated oxidation of hemoglobin-A by hemoglobin capture assay
[1] = biological target: T1, Nitric oxide synthase, inducible (Mus musculus, UniProt P29477); experiment: Inhibition of purified mouse iNOS assessed as inhibition of nitric oxide-mediated oxidation of hemoglobin-A by hemoglobin capture assay
T1 sequence (P29477 whole entry): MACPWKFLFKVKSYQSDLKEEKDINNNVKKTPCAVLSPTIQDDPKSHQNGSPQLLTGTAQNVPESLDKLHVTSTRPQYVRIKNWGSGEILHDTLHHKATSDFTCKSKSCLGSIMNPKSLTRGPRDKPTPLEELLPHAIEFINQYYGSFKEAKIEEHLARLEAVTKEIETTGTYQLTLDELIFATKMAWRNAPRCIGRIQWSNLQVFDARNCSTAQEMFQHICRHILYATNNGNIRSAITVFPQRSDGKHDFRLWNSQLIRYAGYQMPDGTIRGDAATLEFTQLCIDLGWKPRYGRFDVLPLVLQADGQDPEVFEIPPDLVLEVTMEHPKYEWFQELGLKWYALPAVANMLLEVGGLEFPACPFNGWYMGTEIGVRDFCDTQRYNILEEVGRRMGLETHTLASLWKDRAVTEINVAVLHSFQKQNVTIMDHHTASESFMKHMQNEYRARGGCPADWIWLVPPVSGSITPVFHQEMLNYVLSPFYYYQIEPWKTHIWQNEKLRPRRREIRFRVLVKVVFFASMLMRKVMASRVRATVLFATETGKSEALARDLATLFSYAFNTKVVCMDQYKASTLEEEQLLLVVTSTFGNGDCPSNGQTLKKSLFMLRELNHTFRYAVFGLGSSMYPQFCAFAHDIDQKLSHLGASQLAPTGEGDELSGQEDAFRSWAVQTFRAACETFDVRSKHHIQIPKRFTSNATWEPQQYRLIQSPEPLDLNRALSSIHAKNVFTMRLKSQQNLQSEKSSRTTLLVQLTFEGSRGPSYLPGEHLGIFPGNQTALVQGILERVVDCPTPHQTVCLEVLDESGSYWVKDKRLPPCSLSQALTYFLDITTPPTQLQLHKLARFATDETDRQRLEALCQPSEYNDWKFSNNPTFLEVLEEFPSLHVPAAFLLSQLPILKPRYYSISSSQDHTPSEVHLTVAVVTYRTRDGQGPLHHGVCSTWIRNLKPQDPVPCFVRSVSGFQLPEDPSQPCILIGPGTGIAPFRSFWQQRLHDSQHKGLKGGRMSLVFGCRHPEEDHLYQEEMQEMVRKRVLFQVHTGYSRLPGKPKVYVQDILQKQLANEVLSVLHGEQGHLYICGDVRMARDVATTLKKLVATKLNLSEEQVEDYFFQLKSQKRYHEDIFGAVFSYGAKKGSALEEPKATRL

Nitric oxide synthase 3 = biological target: T2, Nitric oxide synthase 3 (Bos taurus, UniProt P29473); experiment: Inhibition of purified bovine eNOS assessed as inhibition of nitric oxide-mediated oxidation of hemoglobin-A by hemoglobin capture assay
T2 sequence (P29473 whole entry): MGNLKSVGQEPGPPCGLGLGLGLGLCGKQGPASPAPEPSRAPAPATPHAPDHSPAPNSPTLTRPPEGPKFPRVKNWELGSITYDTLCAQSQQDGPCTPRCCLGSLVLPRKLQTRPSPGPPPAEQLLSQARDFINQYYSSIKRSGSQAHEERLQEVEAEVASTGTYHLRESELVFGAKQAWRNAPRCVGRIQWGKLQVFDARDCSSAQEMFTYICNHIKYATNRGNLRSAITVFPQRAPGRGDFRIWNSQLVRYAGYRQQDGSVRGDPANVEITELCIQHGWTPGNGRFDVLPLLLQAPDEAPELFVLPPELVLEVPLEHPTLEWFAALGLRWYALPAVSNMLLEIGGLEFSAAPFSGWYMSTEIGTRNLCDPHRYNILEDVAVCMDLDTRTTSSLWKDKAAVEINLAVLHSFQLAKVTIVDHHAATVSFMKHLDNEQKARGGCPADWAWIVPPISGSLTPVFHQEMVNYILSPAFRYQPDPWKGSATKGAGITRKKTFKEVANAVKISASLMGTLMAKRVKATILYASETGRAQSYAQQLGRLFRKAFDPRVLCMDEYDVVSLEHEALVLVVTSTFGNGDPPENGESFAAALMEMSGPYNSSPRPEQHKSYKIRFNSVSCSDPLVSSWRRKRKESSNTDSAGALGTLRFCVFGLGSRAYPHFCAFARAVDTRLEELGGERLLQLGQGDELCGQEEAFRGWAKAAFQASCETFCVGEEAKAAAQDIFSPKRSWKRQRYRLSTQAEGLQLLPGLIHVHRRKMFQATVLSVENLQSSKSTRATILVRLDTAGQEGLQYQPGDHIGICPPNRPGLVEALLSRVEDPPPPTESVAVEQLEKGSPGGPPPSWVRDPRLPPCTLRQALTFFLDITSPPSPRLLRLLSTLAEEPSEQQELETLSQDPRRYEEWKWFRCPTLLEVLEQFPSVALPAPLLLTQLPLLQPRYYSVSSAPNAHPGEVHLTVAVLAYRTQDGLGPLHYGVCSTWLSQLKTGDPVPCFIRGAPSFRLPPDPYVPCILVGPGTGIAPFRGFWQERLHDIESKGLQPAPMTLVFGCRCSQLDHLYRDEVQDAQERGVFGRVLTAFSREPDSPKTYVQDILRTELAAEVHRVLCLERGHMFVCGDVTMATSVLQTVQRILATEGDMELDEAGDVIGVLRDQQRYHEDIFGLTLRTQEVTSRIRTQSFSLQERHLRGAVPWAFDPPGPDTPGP

[2] = Selectivity ratio of Ki for purified mouse iNOS to Ki for purified rat nNOS
[3] = Selectivity ratio of Ki for purified bovine eNOS to Ki for purified rat nNOS

Chain of Nitric oxide synthase 1 (P29476 whole entry): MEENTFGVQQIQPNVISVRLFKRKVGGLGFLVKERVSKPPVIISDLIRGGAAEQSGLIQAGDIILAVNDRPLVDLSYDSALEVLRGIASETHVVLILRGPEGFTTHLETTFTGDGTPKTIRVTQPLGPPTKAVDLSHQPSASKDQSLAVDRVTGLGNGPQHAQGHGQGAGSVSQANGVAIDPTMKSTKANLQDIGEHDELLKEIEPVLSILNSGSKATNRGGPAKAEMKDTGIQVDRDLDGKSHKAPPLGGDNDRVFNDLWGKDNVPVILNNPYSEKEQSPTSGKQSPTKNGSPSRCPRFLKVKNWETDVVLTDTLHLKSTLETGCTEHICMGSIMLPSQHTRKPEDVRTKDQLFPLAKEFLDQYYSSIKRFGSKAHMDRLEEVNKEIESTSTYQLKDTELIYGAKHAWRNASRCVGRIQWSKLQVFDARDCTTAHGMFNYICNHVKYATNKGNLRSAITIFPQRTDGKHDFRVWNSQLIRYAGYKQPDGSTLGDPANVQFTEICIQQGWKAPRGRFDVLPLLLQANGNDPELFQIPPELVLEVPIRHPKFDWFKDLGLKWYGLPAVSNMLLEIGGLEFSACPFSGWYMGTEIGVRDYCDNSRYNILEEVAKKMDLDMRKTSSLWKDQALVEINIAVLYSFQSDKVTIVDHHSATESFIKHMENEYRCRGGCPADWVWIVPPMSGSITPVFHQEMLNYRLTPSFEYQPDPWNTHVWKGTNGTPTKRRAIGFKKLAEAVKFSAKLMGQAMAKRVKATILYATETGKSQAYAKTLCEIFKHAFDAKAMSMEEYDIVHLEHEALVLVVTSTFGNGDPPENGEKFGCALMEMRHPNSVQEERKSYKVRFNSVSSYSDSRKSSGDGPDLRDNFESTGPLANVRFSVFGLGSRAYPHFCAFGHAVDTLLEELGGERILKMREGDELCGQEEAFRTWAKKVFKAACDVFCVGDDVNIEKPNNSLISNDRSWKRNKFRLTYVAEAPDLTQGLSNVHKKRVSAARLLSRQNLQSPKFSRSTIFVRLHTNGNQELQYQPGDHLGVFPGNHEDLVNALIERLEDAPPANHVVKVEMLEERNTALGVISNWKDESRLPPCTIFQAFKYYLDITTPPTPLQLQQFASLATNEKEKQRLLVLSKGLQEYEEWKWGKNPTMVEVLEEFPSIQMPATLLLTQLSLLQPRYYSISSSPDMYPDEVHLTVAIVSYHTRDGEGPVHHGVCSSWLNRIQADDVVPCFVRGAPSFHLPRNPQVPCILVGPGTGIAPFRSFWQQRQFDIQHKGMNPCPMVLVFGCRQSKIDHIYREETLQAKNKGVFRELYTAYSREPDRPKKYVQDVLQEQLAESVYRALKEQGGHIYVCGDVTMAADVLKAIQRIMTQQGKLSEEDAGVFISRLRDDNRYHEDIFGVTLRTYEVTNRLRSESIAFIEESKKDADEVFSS

SMILES | Ki (Nitric oxide synthase 1) | Ki [1] | Ki (Nitric oxide synthase 3) | Ratio Ki [2] | Ratio Ki [3]
Cc1cc(N)nc(CCc2cccc(C(O)Cc3cc(C)cc(N)n3)c2)c1 (configuration not stated) | 0.07 µM | 5.99 µM | 3.61 µM | 86 | 52
Cc1ccnc(CCc2cccc([C@H](N)Cc3cc(C)cc(N)n3)c2)c1 |  | > 100 µM | 1050 µM |  | 
Cc1ccnc(CCc2cccc([C@@H](N)Cc3cc(C)cc(N)n3)c2)c1 |  | > 100 µM |  | > 110 | 363
Cc1cc(N)nc(CCc2cccc(C(CN)Cc3cc(C)cc(N)n3)n2)c1 (racemic) | 0.123 µM | 17.9 µM |  |  | 
